The values below are quoted from earlier work in patent US10160759B2, “Hydroxyethyl sulfonate of cyclin-dependent protein kinase inhibitor, crystalline form thereof and preparation method therefor” (Jiangsu Hengrui Medicine Co., Ltd., priority 2015, dated 2018).

The conditions of this data set: patients, clinical trial NCT00721409.

Molecules are shown by their SMILES.

For `N#Cc1ccc(C(c2ccc(C#N)cc2)n2cncn2)cc1` [letrozole], the “progression-free survival (PFS)” value is listed as 7.5 months.
